Read-outs that look alike come from different tables or passages of the source.
Columns and labels:
[1] = molecular target: T1, YCF1 (vacuolar membrane vesicles purified from DTY165 cells) (Saccharomyces cerevisiae, UniProt P39109); experiment: biochemical; type: biochemical; settings: read-out: Ki(DNP-GS) for inhibition of Cd.GS2 uptake
T1 construct: endogenous in cells; host or cells: S. cerevisiae DTY165 (wild type YCF1), vacuolar membrane vesicles
How it was run: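 Vacuolar vesicles from wild-type (DTY165) or ycf1Δ (DTY167) yeast, washed free of DTT/EGTA into glycerol/Tris-Mes pH 8.0. MgATP-energized, uncoupler-insensitive uptake of 109Cd2+, GSH or purified radiolabeled Cd·GSn complexes measured at 25°C. Medium: 3 mM ATP/MgSO4, ATP-regenerating system, 5 μM gramicidin-D, Tris-Mes pH 8.0; washes contained 100 μM CdSO4.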

[2] = system: vacuolar membrane vesicles purified from DTY167 cells (ycf1Δ mutant); type: biochemical, Saccharomyces cerevisiae
How it was run: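 ATP-dependent [3H]DNP-GS (66.2 μM) transport measured by filtration and scintillation counting of Ficoll-purified yeast vacuolar vesicles (DTY165 wild type; DTY167 ycf1Δ), 1–60 min at 25 °C in sorbitol/Tris-Mes pH 8.0 with 3 mM ATP, 3 mM MgSO4 and gramicidin-D. Nonenergized uptake without ATP/Mg2+.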

[3] = system: vacuolar GS-X pump (vacuolar membrane vesicles, V. radiata hypocotyls); experiment: GS-conjugate uptake by vacuolar membrane vesicles from etiolated hypocotyls of V. radiata; type: biochemical, Vigna radiata

T1 sequence (P39109 whole entry): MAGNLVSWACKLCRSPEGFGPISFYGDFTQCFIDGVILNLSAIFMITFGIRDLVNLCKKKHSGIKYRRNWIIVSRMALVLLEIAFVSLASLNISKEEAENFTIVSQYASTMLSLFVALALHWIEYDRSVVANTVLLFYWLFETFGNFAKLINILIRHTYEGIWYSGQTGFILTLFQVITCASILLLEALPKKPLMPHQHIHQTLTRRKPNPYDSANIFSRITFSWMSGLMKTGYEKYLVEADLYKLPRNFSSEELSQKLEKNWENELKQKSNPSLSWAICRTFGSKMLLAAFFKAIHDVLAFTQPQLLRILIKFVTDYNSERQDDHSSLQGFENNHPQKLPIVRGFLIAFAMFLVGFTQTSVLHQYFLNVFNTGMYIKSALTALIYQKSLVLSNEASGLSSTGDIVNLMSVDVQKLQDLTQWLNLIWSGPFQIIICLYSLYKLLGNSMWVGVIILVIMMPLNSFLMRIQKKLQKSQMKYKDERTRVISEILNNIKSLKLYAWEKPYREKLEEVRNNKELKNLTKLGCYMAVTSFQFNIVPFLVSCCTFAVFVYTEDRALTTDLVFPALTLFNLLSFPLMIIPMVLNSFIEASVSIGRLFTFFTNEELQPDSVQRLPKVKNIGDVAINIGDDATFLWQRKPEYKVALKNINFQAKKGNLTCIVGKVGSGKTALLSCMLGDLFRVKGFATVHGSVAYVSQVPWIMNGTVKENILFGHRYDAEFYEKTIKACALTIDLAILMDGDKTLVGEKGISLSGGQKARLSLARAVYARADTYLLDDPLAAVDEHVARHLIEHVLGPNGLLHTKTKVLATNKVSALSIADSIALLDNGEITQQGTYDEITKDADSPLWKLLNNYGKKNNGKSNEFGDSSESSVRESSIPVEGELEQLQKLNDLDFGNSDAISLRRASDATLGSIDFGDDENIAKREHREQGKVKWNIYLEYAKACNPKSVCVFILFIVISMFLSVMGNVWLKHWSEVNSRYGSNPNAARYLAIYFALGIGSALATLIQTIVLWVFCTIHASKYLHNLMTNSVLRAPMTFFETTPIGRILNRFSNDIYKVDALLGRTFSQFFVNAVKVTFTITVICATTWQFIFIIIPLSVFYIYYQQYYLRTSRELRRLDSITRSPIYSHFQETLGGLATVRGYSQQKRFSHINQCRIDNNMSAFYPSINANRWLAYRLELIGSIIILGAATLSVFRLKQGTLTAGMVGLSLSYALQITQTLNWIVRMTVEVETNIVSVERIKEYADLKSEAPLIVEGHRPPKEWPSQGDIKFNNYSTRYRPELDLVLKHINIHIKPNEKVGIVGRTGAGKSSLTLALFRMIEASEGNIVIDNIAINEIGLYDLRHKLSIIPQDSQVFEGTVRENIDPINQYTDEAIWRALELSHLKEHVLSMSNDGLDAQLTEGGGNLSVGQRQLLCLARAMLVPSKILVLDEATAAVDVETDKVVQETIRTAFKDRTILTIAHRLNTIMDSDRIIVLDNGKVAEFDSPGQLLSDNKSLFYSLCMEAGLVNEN

N[C@@H](CCC(=O)N[C@@H](CSc1ccc([N+](=O)[O-])cc1[N+](=O)[O-])C(=O)NCC(=O)O)C(=O)O [DNP-GS, S-(2,4-dinitrophenyl)glutathione]
Ki [1]: 11.3 ± 2.1 µM
initial rate of DNP-GS uptake ([2]; 3 mM MgATP, 66.2 μM DNP-GS): 1.7 nmol/mg/min
DNP-GS uptake, control ([2]; Table 1: 66.2 μM DNP-GS, 3 mM MgATP, no addition): 15.4 ± 0.4 nmol/mg/10 minutes
MgATP-dependent, uncoupler-insensitive DNP-GS uptake, control ([2]; Table 2: 5 μM gramicidin D, no compound): 6.5 ± 0.8 nmol/mg/10 minutes
IC50 ([3]; V. radiata, read-out: I50 for uptake of C3G-GS): 104 µM
IC50 ([3]; read-out: I50 for uptake of IAA-GS): 124 µM
inhibition of MgATP-dependent [3H]medicarpin-GS uptake ([3]; vanadate 10 μM, DNP-GS 100 μM, gramicidin D): more than 85%
